Source: patent publication US9663800B2, “Alkane exporter and its use” (Nanyang Technological University, priority 2012, dated 2017)

Legend:
ABC3 mRNA = assay: Quantitative RT-PCR of ABC3 transcripts after alkane treatment; type: cell-based; conditions: Y. lipolytica CLIB122, 24 h alkane treated vs. untreated, normalized to actin, p<0.05
Excerpt: (§1) FIG. 3. mRNA transcripts levels of ABC2 and ABC3 in Y. lipolytica. Quantitative RT-PCR analysis of ABC2 (A) and ABC3 (B) in Y. lipolytica cells corresponding to treatment with octane, nonane, decane, undecane and dodecane (C8-C12). Each value of qRT-PCR was normalized to β-actin expression levels and expressed as the fold change relative to the levels detected in control samples, which were cells without alkane treatment and set equal to 1. Error bars represent the SD of triplicate.
(§2) To assess whether ABC1, ABC2, ABC3 and ABC4 are involved in alkane transport in Y. lipolytica, we analysed the effects of alkanes with different chain length (C8-C12) on the transcription levels of these four ABC transporter genes using quantitative RT-PCR.
(§3) Total RNA samples from 24 h alkane treated and untreated Y. lipolytica CLIB122 cells were prepared using RNeasy Mini Kit (Qiagen), followed by cDNA synthesis using H minus Reverse transcriptase kit (Fermentas). Quantitative RT-PCR analysis was performed on a Bio-Rad iQ5 real-time PCR detection system using SsoFast EvaGreen Supermix kit (Bio-Rad). The actin gene (YALI0D08272g) was used as reference gene for Y. lipolytica. Relative mRNA levels were derived using comparative CT method.

S. cerevisiae BY4741 = assay: Alkane susceptibility test in liquid culture; type: cell-based, Saccharomyces cerevisiae; conditions: control cells with empty plasmid, 48 hr, 28° C.
Protocol: FIG. 2. Alkane susceptibility test for S. cerevisiae. The alkane susceptibility was tested in cells expressing ABC2/3 or with empty plasmid. (A) Alkane susceptibility test on agar plate. Serial dilutions of cells expressing ABC2/3 were spotted on agar plates with alkanes (decane, undecane) as vapour phase. Plates were incubated at 28° C. for 2 days. (B) Alkane susceptibility test in liquid culture. Overnight cell culture was diluted into induction medium (final OD600=0.4) with different alkanes (decane & undecane) concentrations. The plates were incubated for 48 hr at 28° C. The OD600 value of each sample was determined and plotted against its corresponding alkane concentration. Symbols for strains are: control sample with empty plasmid (open circle), cells expressing ABC2 (filled circle), cell expressing ABC3 (filled triangle).
Overnight culture was diluted into 5 ml induction medium in 50 ml glass bottle (Sigma) at an initial OD600 of 0.4. Alkanes were added as different final concentration. Bottles were sealed tightly with butyl rubber stopper (Sigma) and silver aluminum seal (Sigma). Liquid culture was performed at 28° C. with shaking. Growth was monitored by measuring the OD600 at different time point. Cell culture used for time point OD checking was collected from the glass bottle using needle and syringe.
To further analyze the effect of ABC2 and ABC3 toward decane and undecane, alkane susceptibility tests in liquid culture were conducted. […] With the expression of ABC2, decane tolerance was boosted about 80-fold (20% vs. 0.25% decane) and cells can survive in 20% undecane. For ABC3, decane tolerance is increased slightly by about 3-fold (0.75% vs. 0.25% decane) and cells are resistant to 20% undecane. It is apparent that the expression of ABC2 and ABC3 transporters improved the tolerance toward C10 and C11 alkanes.

ABC2 mRNA = assay: Quantitative RT-PCR of ABC2 transcripts after alkane treatment; type: cell-based; conditions: Y. lipolytica CLIB122, 24 h alkane treated vs. untreated, normalized to actin, p<0.05
Excerpt: as §1, §2, §3

CCCCCCCCCC [decane]
mRNA levels of ABC3 (ABC3 mRNA): significantly increased
alkane concentration causing a significant decrease in viability of the control cells (S. cerevisiae BY4741): 0.5%
mRNA levels of ABC2 (ABC2 mRNA): significantly increased

CCCCCCCCC [nonane]
mRNA levels of ABC3 (ABC3 mRNA): significantly increased
mRNA levels of ABC2 (ABC2 mRNA): significantly increased
